Measurements taken from ChEMBL document CHEMBL2074438, “Influence of omeprazole on multidrug resistance protein 3 expression in human liver” (J Pharmacol Exp Ther, 2003).

Columns and labels:
[1] = target: Multidrug resistance associated protein (Homo sapiens) (UniProt Q96QA9); assay: TP_TRANSPORTER: RT-PCR in HepG2 cells; assay type: functional, cell-based
[2] = target: Multidrug resistance associated protein (Homo sapiens) (UniProt Q96QA9); assay: TP_TRANSPORTER: Western blot, HepG2 cells; assay type: functional, cell-based

Sequence of Multidrug resistance associated protein (Homo sapiens) (Q96QA9 as listed by the source): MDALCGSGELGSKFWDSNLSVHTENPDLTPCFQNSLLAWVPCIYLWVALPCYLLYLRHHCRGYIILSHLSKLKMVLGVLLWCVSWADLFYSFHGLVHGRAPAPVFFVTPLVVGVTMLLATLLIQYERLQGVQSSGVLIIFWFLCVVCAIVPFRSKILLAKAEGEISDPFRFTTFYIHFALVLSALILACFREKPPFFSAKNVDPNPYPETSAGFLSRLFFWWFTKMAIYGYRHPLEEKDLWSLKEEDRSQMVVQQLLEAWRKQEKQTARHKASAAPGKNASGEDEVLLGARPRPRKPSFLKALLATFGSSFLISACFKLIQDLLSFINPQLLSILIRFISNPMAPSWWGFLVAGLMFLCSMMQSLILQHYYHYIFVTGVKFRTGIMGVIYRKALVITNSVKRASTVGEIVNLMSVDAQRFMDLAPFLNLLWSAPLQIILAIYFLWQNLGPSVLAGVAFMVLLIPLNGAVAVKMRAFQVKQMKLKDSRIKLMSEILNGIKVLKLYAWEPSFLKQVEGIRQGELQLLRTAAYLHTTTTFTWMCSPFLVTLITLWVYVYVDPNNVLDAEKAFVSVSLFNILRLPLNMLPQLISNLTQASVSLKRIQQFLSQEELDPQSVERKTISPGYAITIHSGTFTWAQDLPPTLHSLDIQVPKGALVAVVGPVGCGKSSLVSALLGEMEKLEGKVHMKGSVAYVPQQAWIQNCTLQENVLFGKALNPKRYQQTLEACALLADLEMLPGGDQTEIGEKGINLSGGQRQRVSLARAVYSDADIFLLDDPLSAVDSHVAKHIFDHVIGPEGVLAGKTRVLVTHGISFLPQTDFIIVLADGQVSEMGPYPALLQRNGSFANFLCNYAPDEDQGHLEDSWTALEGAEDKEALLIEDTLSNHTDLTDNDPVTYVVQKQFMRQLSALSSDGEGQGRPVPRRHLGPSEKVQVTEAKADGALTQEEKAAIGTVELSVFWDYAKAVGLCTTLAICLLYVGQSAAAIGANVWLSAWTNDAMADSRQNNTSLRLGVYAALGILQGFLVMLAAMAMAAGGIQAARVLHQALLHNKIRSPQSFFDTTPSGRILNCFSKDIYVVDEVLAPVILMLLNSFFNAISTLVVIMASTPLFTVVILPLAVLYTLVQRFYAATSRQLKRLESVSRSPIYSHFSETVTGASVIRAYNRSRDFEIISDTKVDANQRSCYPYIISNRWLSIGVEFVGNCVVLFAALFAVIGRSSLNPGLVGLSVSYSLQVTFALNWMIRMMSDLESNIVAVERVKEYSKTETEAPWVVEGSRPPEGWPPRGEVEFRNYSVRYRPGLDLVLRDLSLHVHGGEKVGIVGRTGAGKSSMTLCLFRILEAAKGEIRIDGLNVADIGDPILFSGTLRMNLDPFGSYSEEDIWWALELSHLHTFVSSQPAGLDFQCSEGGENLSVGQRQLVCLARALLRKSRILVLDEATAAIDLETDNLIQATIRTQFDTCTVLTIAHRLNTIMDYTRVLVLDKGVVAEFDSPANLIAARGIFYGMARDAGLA

Compound	Activity [1]	Activity [2]
COc1ccc2[nH]c([S+]([O-])Cc3ncc(C)c(OC)c3C)nc2c1 (centres undefined)	inducer []	inducer []
O=c1cc(-c2ccccc2)oc2ccc3ccccc3c12	inducer []	inducer []
